This note sets out measurements from patent US9815796B2 (Merck Sharp & Dohme Corp., priority 2013, dated 2017).

Structures are written as SMILES. Read-outs that look alike come from different tables or passages of the source.

One experiment addresses human PDE2A1 (Homo sapiens (Human), UniProt O00408). Description: IMAP FP PDE selectivity panel, human PDE2A1. It is filed as biochemical. As to conditions: Human PDE2, Lab B; read-out: Human PDE2 Ki (nM) - Lab B. Here is the method: Selectivity for PDE2, as compared to other PDE families, was assessed using the IMAP® technology. Human PDE 10A2 enzyme was prepared from cytosolic fractions of transiently transfected HEK cells. All other PDE's were GST Tag human enzyme expressed in insect cells and were obtained from BPS Bioscience (San Diego, Calif.): PDE1A (Cat#60010), human PDE2A1 (Cat#60020), PDE3A (Cat#60030), PDE4A1A (Cat#60040), PDE5A1 (Cat#60050), PDE6C (Cat#60060), PDE7A (Cat#60070), PDE8A1 (Cat#60080), PDE9A2 (Cat#60090), PDE11A4 (Cat#60110).
Assays for PDE 1 through 11 were performed in parallel at room temperature in 384-well microtiter plates with an incubation volume of 20.2 μL. Solutions of test compounds were prepared in DMSO and serially diluted with DMSO to yield 30 μL of each of ten solutions differing by 3-fold in concentration, at 32 serial dilutions per plate. […] A Labcyte POD 810 (Labcyte, Sunnyvale, Calif.) was used to dispense 200 nL from each well of the titration plate to make eleven copies of the assay plate for each titration, one copy for each PDE enzyme. A solution of each enzyme (dilution from aliquots, sufficient to produce 20% substrate conversion) and a separate solution of FAM-labeled cAMP or FAM-labeled cGMP from Molecular Devices (Sunnyvale, Calif., product # R7506 or cGMP#R7508), at a final concentration of 50 nM were made in the assay buffer (10 mM Tris HCl, pH 7.2, 10 mM MgCl2, 0.05% NaN3 0.01% Tween-20, and 1 mM DTT). Note that the substrate for PDE2 is 50 nM FAM cAMP containing 1000 nM of cGMP. The enzyme and the substrate were then added to the assay plates in two consecutive additions of 10 μL and then shaken to mix. The reaction was allowed to proceed at room temperature for 60 minutes. A binding solution was then made from the kit components, comprised of 80% Solution A, 20% Solution B and binding reagent at a volume of 1/600 the total binding solution. The enzymatic reaction was stopped by addition of 60 μL of the binding solution to each well of the assay plate. The plates were sealed and shaken for 10 seconds. The plates were incubated at room temperature for one hour, then the parallel and perpendicular fluorescence was measured using a Tecan Genios Pro plate reader (Tecan, Switzerland). The apparent inhibition constants for the compounds against all 11 PDE's was determined from the parallel and perpendicular fluorescent readings as described for PDE10 FP assay using the following apparent KM values for each enzyme and substrate combination: PDE1A (FAM cGMP) 70 nM, human PDE2A1 (FAM cAMP) 10,000 nM, PDE3A (FAM cAMP) 50 nM, PDE4A1A (FAM cAMP) 1500 nM, PDE5A1 (FAM cGMP) 400 nM, PDE6C (FAM cGMP) 700 nM, PDE7A (FAM cAMP) 150 nM, PDE8A1 (FAM cAMP) 50 nM, PDE9A2 (FAM cGMP) 60 nM, PDE10A2 (FAM cAMP) 150 nM, PDE11A4 (FAM cAMP) 1000 nM. The intrinsic PDE2 inhibitory activity of a compound which may be used in accordance with the present invention may be determined by these assays.

In the next experiment the target is Rhesus PDE2A3 (Macaca mulatta, UniProt B3VTJ2). Description: PDE2 fluorescence polarization (IMAP FP) inhibition assay, rhesus enzyme. The experiment is classed as biochemical, rhesus macaque. An outline of the steps: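 IMAP FP (mP from parallel and perpendicular fluorescence against substrate-only control) was read ≥1 h after adding binding reagent. The preceding 60 min room-temperature reaction contained FAM-cAMP (50 nM) and cGMP (1 uM) in pH 7.2 Tris buffer with MgCl2 and DTT. Enzyme was supernatant of sonicated AD293 cells expressing rhesus PDE2A3; compounds were 3-fold titrated, DMSO 1% final.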
Background: Fluorescence polarisation rises when a labelled molecule tumbles more slowly, as on binding a larger partner.

Setting [1] is: Rhesus PDE2, Lab A, read-out: Rhesus PDE2 Ki (nM) - Lab A.
The mark [2] stands for this setting: Rhesus PDE2, Lab B, read-out: Rhesus PDE2 Ki (nM) - Lab B.

human PDE2A1, sequence (O00408 other isoform, or with tags, fused parts or gaps): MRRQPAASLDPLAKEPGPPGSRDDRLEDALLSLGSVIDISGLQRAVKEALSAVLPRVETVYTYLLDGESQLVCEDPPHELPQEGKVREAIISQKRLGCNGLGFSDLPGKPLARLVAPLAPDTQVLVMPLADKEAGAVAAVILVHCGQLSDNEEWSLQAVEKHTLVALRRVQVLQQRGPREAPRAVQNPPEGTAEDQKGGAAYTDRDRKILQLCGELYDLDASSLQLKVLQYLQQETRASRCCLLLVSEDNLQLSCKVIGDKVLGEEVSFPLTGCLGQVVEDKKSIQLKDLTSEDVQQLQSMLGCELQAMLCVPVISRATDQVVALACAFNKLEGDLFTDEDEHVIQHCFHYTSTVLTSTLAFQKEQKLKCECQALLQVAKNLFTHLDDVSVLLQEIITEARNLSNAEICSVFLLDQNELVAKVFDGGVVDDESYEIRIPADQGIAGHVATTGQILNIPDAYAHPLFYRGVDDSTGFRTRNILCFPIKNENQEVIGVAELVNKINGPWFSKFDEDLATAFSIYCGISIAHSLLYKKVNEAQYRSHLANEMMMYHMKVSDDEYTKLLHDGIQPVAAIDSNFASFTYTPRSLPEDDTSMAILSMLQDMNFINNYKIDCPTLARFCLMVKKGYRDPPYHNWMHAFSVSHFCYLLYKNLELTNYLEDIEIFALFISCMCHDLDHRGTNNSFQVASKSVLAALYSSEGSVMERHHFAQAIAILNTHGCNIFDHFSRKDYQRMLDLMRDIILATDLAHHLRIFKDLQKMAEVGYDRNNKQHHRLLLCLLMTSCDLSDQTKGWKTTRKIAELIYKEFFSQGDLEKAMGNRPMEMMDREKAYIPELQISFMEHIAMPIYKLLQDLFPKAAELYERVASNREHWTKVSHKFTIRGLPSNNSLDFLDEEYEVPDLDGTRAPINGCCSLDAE
Rhesus PDE2A3, sequence (B3VTJ2 1-941): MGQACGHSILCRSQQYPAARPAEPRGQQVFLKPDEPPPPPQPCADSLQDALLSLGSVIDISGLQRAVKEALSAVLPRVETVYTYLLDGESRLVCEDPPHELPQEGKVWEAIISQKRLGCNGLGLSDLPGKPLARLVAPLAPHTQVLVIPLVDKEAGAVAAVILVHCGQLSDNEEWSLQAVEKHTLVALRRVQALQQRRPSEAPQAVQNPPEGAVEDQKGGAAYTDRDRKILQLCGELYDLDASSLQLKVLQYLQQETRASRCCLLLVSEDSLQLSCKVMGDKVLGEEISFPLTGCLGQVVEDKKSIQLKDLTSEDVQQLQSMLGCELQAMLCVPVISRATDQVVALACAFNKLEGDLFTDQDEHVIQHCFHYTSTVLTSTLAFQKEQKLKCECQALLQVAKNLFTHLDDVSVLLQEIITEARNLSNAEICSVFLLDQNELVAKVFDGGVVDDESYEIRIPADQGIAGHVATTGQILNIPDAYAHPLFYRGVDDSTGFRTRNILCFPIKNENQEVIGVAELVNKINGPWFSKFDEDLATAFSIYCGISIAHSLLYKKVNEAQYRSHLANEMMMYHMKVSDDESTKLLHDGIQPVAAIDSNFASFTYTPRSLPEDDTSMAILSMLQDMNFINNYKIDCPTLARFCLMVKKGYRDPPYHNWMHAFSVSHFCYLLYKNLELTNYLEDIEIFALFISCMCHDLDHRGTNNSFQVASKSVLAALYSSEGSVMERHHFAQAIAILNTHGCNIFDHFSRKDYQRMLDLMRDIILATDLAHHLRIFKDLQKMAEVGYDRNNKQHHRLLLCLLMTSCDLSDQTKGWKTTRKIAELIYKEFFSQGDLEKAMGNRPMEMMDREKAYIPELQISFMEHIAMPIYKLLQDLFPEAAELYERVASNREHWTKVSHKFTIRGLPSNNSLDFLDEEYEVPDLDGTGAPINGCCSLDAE

In the case of `Cc1nc(C(=O)NC(C)(C)c2ccc(OC(F)(F)F)cc2F)cc(=O)[nH]1` [Example 597, N-{1-[2-fluoro-4-(trifluoromethoxy)phenyl]-1-methylethyl}-2-methyl-6-oxo-1,6-dihydropyrimidine-4-carboxamide], the Ki (as a rule, the equilibrium dissociation constant of an inhibitor or competing ligand from its target) on human PDE2A1 is 137 nM.

Take `Cc1nc(C(=O)N[C@H](C)c2ccc(S(F)(F)(F)(F)F)cc2F)cc(=O)[nH]1` [Example 673, N-(1-(2-fluoro-4-(pentafluorothio)phenyl)ethyl)-2-methyl-6-oxo-1,6-dihydropyrimidine-4-carboxamide]: at human PDE2A1, the inhibition constant (Ki) worked out at 32 nM.

In the case of `CCc1nc(C(=O)NC(C)(C)c2ccc(C(F)(F)F)cc2Cl)cc(=O)[nH]1` [Example 608, N-{1-[2-chloro-4-(trifluoromethyl)phenyl]-1-methylethyl}-2-ethyl-6-oxo-1,6-dihydropyrimidine-4-carboxamide], the Ki on human PDE2A1 was found to be 3.2 nM.

Take `CC1([C@@H](NC(=O)c2cc(=O)[nH]c(-c3ncccn3)n2)c2ccc(C(F)(F)F)cc2)CC1` [Example 582, N-{(R)-(1-methylcyclopropyl)[4-(trifluoromethyl)phenyl]methyl}-6-oxo-1,6-dihydro-2,2′-bipyrimidine-4-carboxamide]: the Ki on human PDE2A1 was 10 nM.

As for `Cc1nc(C(=O)N[C@H](C)c2ccc(C(F)F)c(F)c2)cc(=O)[nH]1` [Example 657, N-{(1R)-1-[4-(difluoromethyl)-3-fluorophenyl]ethyl}-2-methyl-6-oxo-1,6-dihydropyrimidine-4-carboxamide], the Ki on human PDE2A1 is 133 nM.

Take `CCC(C)(NC(=O)c1cc(=O)[nH]c(C)n1)c1ccc(C(F)(F)F)cc1` (single isomer, unassigned) [Example 669, (R)- or (S)-2-methyl-N-{1-methyl-1-[4-(trifluoromethyl)phenyl]propyl}-6-oxo-1,6-dihydropyrimidine-4-carboxamide]: the Ki on human PDE2A1 was found to be 15 nM.

In the case of `Cc1nc(C(=O)N[C@@H](c2ccc(C(F)F)c(F)c2)C(C)(C)C)cc(=O)[nH]1` [Example 646, N-{(1R)-1-[4-(difluoromethyl)-3-fluorophenyl]-2,2-dimethylpropyl}-2-methyl-6-oxo-1,6-dihydropyrimidine-4-carboxamide], on human PDE2A1, the Ki worked out at 15 nM.

As for `CC(NC(=O)c1cc(=O)[nH]c(-c2ncccn2)n1)c1ccc(C2(C(F)(F)F)CC2)cc1` (single isomer, unassigned) [Example 693, (R)- or (S)-6-oxo-2-(pyrimidin-2-yl)-N-(1-(4-(1-(trifluoromethyl)cyclopropyl)phenyl)-ethyl)-1,6-dihydropyrimidine-4-carboxamide], the Ki at human PDE2A1 amounted to 63 nM.

For the molecule `CC(NC(=O)c1cc(=O)[nH]c(-c2ncccn2)n1)c1ccc(C(C)(C)C(F)(F)F)cc1` (single isomer, unassigned) [Example 700, (S)- or (R)-6-oxo-N-(1-(4-(1,1,1-trifluoro-2-methylpropan-2-yl)phenyl)ethyl)-1,6-dihydro-[2,2′-bipyrimidine]-4-carboxamide], the inhibitory constant (Ki) at human PDE2A1 was greater than 2960 nM.

Take `CCc1nc(C(=O)N[C@](C)(CO)c2ccc(C(F)(F)F)cc2)cc(=O)[nH]1` [Example 638, 2-ethyl-N-{(1S)-2-hydroxy-1-methyl-1-[4-(trifluoromethyl)phenyl]ethyl}-6-oxo-1,6-dihydropyrimidine-4-carboxamide]: on human PDE2A1, the inhibition constant (Ki) turned out to be 12 nM.

On to `Cc1nc(C(=O)NC(C)c2ccc(C(C)(C)C)cc2)cc(=O)[nH]1` (single isomer, unassigned) [Example 310, (S)- or (R)-N-[1-(4-tert-butylphenyl)ethyl]-2-methyl-6-oxo-1,6-dihydropyrimidine-4-carboxamide], for which the Ki at Rhesus PDE2A3 (setting [1]) turned out to be 5650 nM.

Take `CC(NC(=O)c1cc(=O)[nH]c(-c2ncccn2)n1)c1ncc(C(F)(F)F)cn1` (stereo not drawn) [Example 105, 6-oxo-N-{1-[5-(trifluoromethyl)pyrimidin-2-yl]ethyl}-1,6-dihydro-2,2′-bipyrimidine-4-carboxamide]: the Ki at Rhesus PDE2A3 (setting [1]) was found to be 3470 nM.

As for `Cc1nc(C(=O)N[C@H](C)c2cc(F)c(C(F)(F)F)cc2F)cc(=O)[nH]1` [Example 616], the inhibitory constant (Ki) on Rhesus PDE2A3 (setting [2]) is 112 nM.

On to `Cc1cc(C(F)(F)F)ccc1C(C)NC(=O)c1cc(=O)[nH]c(C2CC2)n1` (stereo not drawn) [Example 208], for which the Ki at Rhesus PDE2A3 (setting [1]) came to 291 nM.

Take `COc1cc(C(C)NC(=O)c2cc(=O)[nH]c(C3CC3)n2)ccc1C(F)(F)F` (stereo not drawn) [Example 226, 2-cyclopropyl-N-{1-[3-methoxy-4-(trifluoromethyl)phenyl]ethyl}-6-oxo-1,6-dihydropyrimidine-4-carboxamide]: the Ki on Rhesus PDE2A3 (setting [1]) amounted to 505 nM.

Consider `CC(NC(=O)c1cc(=O)[nH]c(-c2ccccc2)n1)c1ccccc1C(F)(F)F` (stereo not drawn) [Example 169, 6-oxo-2-phenyl-N-{1-[2-(trifluoromethyl)phenyl]ethyl}-1,6-dihydropyrimidine-4-carboxamide], for which, on Rhesus PDE2A3 (setting [1]), the Ki was determined as 3420 nM.

In the case of `COc1ccc(C(NC(=O)c2cc(=O)[nH]c(-c3ccccc3)n2)c2ccc(C(F)(F)F)cc2)cc1` (stereo not drawn) [Example 381, N-{(4-methoxyphenyl)[4-(trifluoromethyl)phenyl]methyl}-6-oxo-2-phenyl-1,6-dihydropyrimidine-4-carboxamide], the Ki on Rhesus PDE2A3 (setting [2]) was roughly 20400 nM.

`C[C@H](c1ccc(C(F)(F)F)cc1)N(C)C(=O)c1cc(=O)[nH]c(C2CC2)n1` [Example 209]: the Ki at Rhesus PDE2A3 (setting [1]) stood at 17400 nM.

For the molecule `COC(=O)c1ccc(C(C)(C)NC(=O)c2cc(=O)[nH]c(C3CC3)n2)cc1` [Example 215, methyl 4-(1-{[(2-cyclopropyl-6-oxo-1,6-dihydropyrimidin-4-yl)carbonyl]amino}-1-methylethyl)benzoate], the Ki at Rhesus PDE2A3 (setting [1]) is 967 nM.

On to `O=C(NC(c1ccccc1)c1ccc(C(F)(F)F)cc1)c1cc(=O)[nH]c(-c2ncccn2)n1` (stereo not drawn) [Example 78, 6-oxo-N-{phenyl[4-(trifluoromethyl)phenyl]methyl}-1,6-dihydro-2,2′-bipyrimidine-4-carboxamide], for which the Ki at Rhesus PDE2A3 (setting [1]) is 1080 nM.

Turning to `CC(NC(=O)c1cc(=O)[nH]c(C2CC2)n1)c1ccccc1C(F)(F)F` (stereo not drawn) [Example 220, 2-cyclopropyl-6-oxo-N-{1-[2-(trifluoromethyl)phenyl]ethyl}-1,6-dihydropyrimidine-4-carboxamide], at Rhesus PDE2A3 (setting [1]), the Ki is 10700 nM.

For the molecule `CC(NC(=O)c1cc(=O)[nH]c(-c2ccccc2)n1)c1ccc(C#N)cc1` (stereo not drawn) [Example 370, N-[1-(4-cyanophenyl)ethyl]-6-oxo-2-phenyl-1,6-dihydropyrimidine-4-carboxamide], the figures for the inhibition constant Ki at Rhesus PDE2A3 (setting [1]) and on Rhesus PDE2A3 (setting [2]) were 334 nM and 533 nM, respectively.

Regarding `Cc1nc(C(=O)NC(c2ccc(F)cc2)c2ccc(C(F)(F)F)cc2)cc(=O)[nH]1` (stereo not drawn) [Example 130, N-{(4-fluorophenyl)[4-(trifluoromethyl)phenyl]methyl}-2-methyl-6-oxo-1,6-dihydropyrimidine-4-carboxamide], on Rhesus PDE2A3 (setting [1]), the Ki turned out to be 715 nM.

As to `COC(=O)C(NC(=O)c1cc(=O)[nH]c(-c2ccccc2)n1)c1ccc(C(F)(F)F)cc1` (stereo not drawn) [Example 406, methyl {[(6-oxo-2-phenyl-1,6-dihydropyrimidin-4-yl)carbonyl]amino}[4-(trifluoromethyl)phenyl]acetate], on Rhesus PDE2A3 (setting [2]), the Ki was 226 nM.

As to `O=C(NCc1c(Cl)cc(C(F)(F)F)cc1Cl)c1cc(=O)[nH]c(-c2ccccc2)n1` [Example 156], the “Rhesus PDE2 % inh. at 1 uM - Lab A” value at Rhesus PDE2A3 (Rhesus PDE2, Lab A, at 1 uM) is 9 % inh. Also, the inhibitory constant (Ki) at Rhesus PDE2A3 (setting [1]) is greater than 1000 nM.
